Laboratory results taken from patent publication US8722626B2, “Method for controlling fibrosis and other pathological deposits in tissues comprising administering a GHRP-6 composition” (Centro de Ingenieria Genetica y Biotecnologia, priority 2006, dated 2014).
Square brackets hold non-standard residues; d marks the D form. Ends that are not written are not given here. Peptide text beside a SMILES is read from it. * marks the point of attachment. dTrp(2-Me) = Cc1[nH]c2ccccc2c1C[C@@H](N)C(=O)O; Octanoyl = CCCCCCCC(=O)*

What was measured:
[1] = tested on: human keloid fragments xeno-transplanted in athymic mice; test: Human keloid fragments xeno-transplanted into athymic mice (Example 7); assay type: in vivo, mouse; conditions: for No. of fields positive to collagen-specific staining: Picrosirius red and trichromic Masson's staining, 4× and 10× averaged; for No. of fields positive to collagen-specific staining / No. of microscopic fields with mast cells (20X magnif.): infiltrated once every 24 hrs during 7 days; for No. of microscopic fields with mast cells (20X magnif.): aniline blue staining; for Hydroxiproline content in the tissue / Wet weight of the graft collected: infiltrated at the edges in the implants once every 24 hrs during 7 days, 5 micrograms to 1 milligram
Excerpt: To study the effect of peptides GHRP-6, GHRP-2, Hexarelin and/or Ghrelin in eradicating the pathological deposits of physiological material in the skin, human keloid fragments were xeno-transplanted into the dorsal region in athymic mice. After 72 hrs of evolution, to corroborate grafting and viability of xeno-transplants, the animals (N=6) were randomly distributed into the following experimental groups: • A—Saline control group (vehicle of the active principles). • B—Group receiving GHRP-6. • C—Group receiving GHRP-2. • D—Group receiving Ghrelin. • E—Group receiving Hexarelin. • Treatments were applied once every 24 hrs during 7 days. The substances were infiltrated at the edges in the implants, for local bioavailability of the active principles, at dosages from 5 micrograms to 1 milligram. After the treatment period, the animals were sacrificed and the implants extracted to evaluate the pharmacological response to every substance. Samples were weighed and fragmented for histological studies and biochemical determinations of collagen. The fragments for histological studies were fixed in 10% formalin neutral, and those fragments for biochemical analyses were stored at −70° C. • The parameters studied were: • a—Wet weight of the graft collected. • b—Hydroxiproline content in the tissue. • c—Number of microscopic fields with tissue positive to Picrosirius red staining and trichromic Masson's staining.

[2] = tested on: transgenic mice over-expressing one mutated form of the NOTCH 3 gene; test: Dementia of vascular origin: transgenic mice over-expressing mutated NOTCH 3 gene (CADASIL model, Example 6); assay type: in vivo, mouse; set-up: SODt (oxidative stress marker) / Cabalase (oxidative stress marker) / HPT (oxidative stress marker) / MDA (oxidative stress marker): unit not given here; conditions: 100 μg/kg i.p. twice a week, 16 weeks; for Cabalase (oxidative stress marker) / Cerebral Myo-inositol / HPT (oxidative stress marker) / MDA (oxidative stress marker) / SODt (oxidative stress marker): brain; for No. of blood vessels positive to Congo Red / No. of blood vessels positive to Nissl / No. of hemorrhagic foci. / No. of subcortical infarctions.: cerebral tissues
Description: This experiment was conducted to evaluate the efficacy of pharmaceutical compositions indistinctly containing one of the peptides GHRP-6, GHRP-2, hexarelin or ghrelin on the central neurofunctional involution process in transgenic mice over-expressing one mutated form of the NOTCH 3 gene in blood vessel smooth muscle cells. These animals develop in terms of months an arteriopathy similar to that of the CASADIL disease, referred to the descriptive memory, and is occurring as one of the main causes of vascular dementia. In these animals, vascular lesions also include retinal-cerebral, cerebral and cochlear vasculopathies. The beta-amiloid material present in the brain and blood vessels, the deposit of osmophilic granular material in brain and meningeal artery walls and their reduced lumen are histopathologically relevant. White-pale zones, microinfarction and hemorrhagic foci zones appear in the brain and its main nervous trunks.
Eighteen- to twenty-months-old male mice were employed when evidenced the symptoms of the disease. The animals were randomly assigned to the following experimental treatment groups: • A—Placebo group receiving the physiological saline solution. • B—Group receiving GHRP-6 at a 100 μg/kg dosage. • C—Group receiving GHRP-2 at a 100 μg/kg dosage. • D—Group receiving Ghrelin at a 100 μg/kg dosage. • E—Group receiving Hexarelin at a 100 μg/kg dosage.
Treatments were applied twice a week during 16 weeks by intraperitoneal route. When treatments concluded, autopsy studies were conducted irrespective of the clinical improvement evidenced in a great number of animals treated. Brain tissue samples including meningeal tissues were collected for biochemical and histopathological determinations. The animals received anesthesia overdosed and subjected to intra-cardiac perfusion with cold physiological saline solution to wash off the blood present in the encephala. The encephala were extracted and one encephalon was frozen in dry-ice and the other was fixed in 4% para-formaldehyde neutral. Samples were cryo-sliced at 10 μm and slices were stained with hematoxylin/eosin, Congo Red, or incubated with an antibody specific for the beta-amiloid protein. Morphometric procedures were carried out by microscopic imaging capture by a camera connected to the microscope, and the images were analyzed with the DIGIPAT software.
Number of fibrillar deposits of beta-amiloid in blood vessels.
Number of sub-cortical infarctions.
Number of sub-cortical hemorrhages.
Brain concentration of myo-inositol as indicator of aging and brain metabolism deterioration (μmol/g of tissue).
Brain oxidative stress markers.

Ghrelin: secretagogue peptide; active principle of the pharmaceutical composition (GSS(Octanoyl)FLSPEHQRVQQRKESKKPPAKLQPR; ends and bridges not checked; UniProt Q9UBU3 24-51, looked up)
No. of fields positive to collagen-specific staining [1]: 11.27 | No. of microscopic fields with mast cells (20X magnif.) [1]: 10.71 ± 4.57 | Hydroxiproline content in the tissue [1]: 85.23 ± 4.11 µg/g | Wet weight of the graft collected [1]: 6.67 ± 1.53 a grams | Cabalase (oxidative stress marker) [2]: 44.67 ± 11.58 | Cerebral Myo-inositol [2]: 14.04 ± 3.85 μmol/g of tissue | HPT (oxidative stress marker) [2]: 142.16 ± 10.01 | MDA (oxidative stress marker) [2]: 0.261 ± 0.03 | SODt (oxidative stress marker) [2]: 12290.9 ± 60.32 | No. of blood vessels positive to Congo Red [2]: 17.67 ± 2.26 | No. of blood vessels positive to Nissl [2]: 11.27 ± 4.61 | No. of hemorrhagic foci. [2]: 13.06 ± 2.77 | No. of subcortical infarctions. [2]: 26.9 ± 4.27

GHRP-2
No. of fields positive to collagen-specific staining [1]: 18.12 | No. of microscopic fields with mast cells (20X magnif.) [1]: 11.17 ± 3.33 | Hydroxiproline content in the tissue [1]: 84.17 ± 7.75 µg/g | Wet weight of the graft collected [1]: 7.14 ± 1.02 a grams | Cabalase (oxidative stress marker) [2]: 48.23 ± 14.25 | Cerebral Myo-inositol [2]: 14.65 ± 4.38 μmol/g of tissue | HPT (oxidative stress marker) [2]: 117 ± 13.55 | MDA (oxidative stress marker) [2]: 0.302 ± 0.01 | SODt (oxidative stress marker) [2]: 11065.49 ± 46.29 | No. of blood vessels positive to Congo Red [2]: 18.26 ± 4.57 | No. of blood vessels positive to Nissl [2]: 13.8 ± 6.76 | No. of hemorrhagic foci. [2]: 11.79 ± 4.25 | No. of subcortical infarctions. [2]: 30.13 ± 5.72

Cc1[nH]c2ccccc2c1C[C@@H](NC(=O)[C@@H](N)Cc1cnc[nH]1)C(=O)N[C@@H](C)C(=O)N[C@@H](Cc1c[nH]c2ccccc12)C(=O)N[C@H](Cc1ccccc1)C(=O)N[C@@H](CCCCN)C(N)=O [Hexarelin] (H-H[dTrp(2-Me)]AW[dF]K-NH2)
No. of fields positive to collagen-specific staining [1]: 12.35 | No. of microscopic fields with mast cells (20X magnif.) [1]: 10.18 ± 2.98 | Hydroxiproline content in the tissue [1]: 88.59 ± 6.58 µg/g | Wet weight of the graft collected [1]: 6.25 ± 1.73 a grams | Cabalase (oxidative stress marker) [2]: 51.19 ± 7.84 | Cerebral Myo-inositol [2]: 11.88 ± 2.71 μmol/g of tissue | HPT (oxidative stress marker) [2]: 54.3 ± 11.87 | MDA (oxidative stress marker) [2]: 0.284 ± 0.01 | SODt (oxidative stress marker) [2]: 10814.68 ± 33.08 | No. of blood vessels positive to Congo Red [2]: 15.24 ± 1.24 | No. of blood vessels positive to Nissl [2]: 11.36 ± 6.4 | No. of hemorrhagic foci. [2]: 14.61 ± 3.31 | No. of subcortical infarctions. [2]: 27.11 ± 3.55
